# Key:
# Test in all cases: Reduction of azo substrates over 24 hours at 35° C., microtitration plate (Example 1)
# Assay type in all cases: cell-based
# [1] = tested on: Staphylococcus epidermidis; design: key to RED (substrate reduced or not): RED indicates whether the substrate is reduced (Y) or not (N); RED indicates whether the substrate is reduced (Y) or not (N); key to Co (growth, absorbance at 660 nm) / Decol (substrate decolourized, decrease in absorbance) / Fluo (fluorescence multiplied by 2 relative to substrate-free control): The symbol “+” means good growth/decolourization/significant increase in fluorescence; The symbol “+/−” means difficult growth; The symbol “−” means that there is no growth/decolourization/significant increase in fluorescence; conditions: S. epidermidis, substrate 35 mg/l
# In short: (§1)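 Each species is represented by a single strain inoculated at 0.5 McFarland into Trypcase soya broth with substrate at 35 mg/l. Plates are read continuously at 35° C. over 24 hours. A substrate counts as reduced when absorbance falls or fluorescence doubles relative to a substrate-free control.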
# Kocuria rosea = tested on: Kocuria rosea; design: key to RED (substrate reduced or not): RED indicates whether the substrate is reduced (Y) or not (N); RED indicates whether the substrate is reduced (Y) or not (N); key to Co (growth, absorbance at 660 nm) / Decol (substrate decolourized, decrease in absorbance) / Fluo (fluorescence multiplied by 2 relative to substrate-free control): The symbol “+” means good growth/decolourization/significant increase in fluorescence; The symbol “+/−” means difficult growth; The symbol “−” means that there is no growth/decolourization/significant increase in fluorescence; conditions: K. rosea, substrate 35 mg/l
# In short: as §1
# Geotrichum candidum = tested on: Geotrichum candidum; design: key to RED (substrate reduced or not): RED indicates whether the substrate is reduced (Y) or not (N); RED indicates whether the substrate is reduced (Y) or not (N); key to Co (growth, absorbance at 660 nm) / Decol (substrate decolourized, decrease in absorbance) / Fluo (fluorescence multiplied by 2 relative to substrate-free control): The symbol “+” means good growth/decolourization/significant increase in fluorescence; The symbol “+/−” means difficult growth; The symbol “−” means that there is no growth/decolourization/significant increase in fluorescence; conditions: G. candidum, substrate 35 mg/l
# In short: as §1
# Candida albicans = tested on: Candida albicans; design: key to RED (substrate reduced or not): RED indicates whether the substrate is reduced (Y) or not (N); RED indicates whether the substrate is reduced (Y) or not (N); key to Co (growth, absorbance at 660 nm) / Decol (substrate decolourized, decrease in absorbance) / Fluo (fluorescence multiplied by 2 relative to substrate-free control): The symbol “+” means good growth/decolourization/significant increase in fluorescence; The symbol “+/−” means difficult growth; The symbol “−” means that there is no growth/decolourization/significant increase in fluorescence; conditions: substrate 35 mg/l
# In short: as §1
# Pseudomonas aeruginosa = tested on: Pseudomonas aeruginosa; design: key to RED (substrate reduced or not): RED indicates whether the substrate is reduced (Y) or not (N); RED indicates whether the substrate is reduced (Y) or not (N); key to Co (growth, absorbance at 660 nm) / Decol (substrate decolourized, decrease in absorbance) / Fluo (fluorescence multiplied by 2 relative to substrate-free control): The symbol “+” means good growth/decolourization/significant increase in fluorescence; The symbol “+/−” means difficult growth; The symbol “−” means that there is no growth/decolourization/significant increase in fluorescence; conditions: P. aeruginosa, substrate 35 mg/l
# In short: as §1
# Escherichia coli = tested on: Escherichia coli; design: key to RED (substrate reduced or not): RED indicates whether the substrate is reduced (Y) or not (N); RED indicates whether the substrate is reduced (Y) or not (N); key to Co (growth, absorbance at 660 nm) / Decol (substrate decolourized, decrease in absorbance) / Fluo (fluorescence multiplied by 2 relative to substrate-free control): The symbol “+” means good growth/decolourization/significant increase in fluorescence; The symbol “+/−” means difficult growth; The symbol “−” means that there is no growth/decolourization/significant increase in fluorescence; conditions: E. coli, substrate 35 mg/l
# In short: as §1
# Staphylococcus aureus = tested on: Staphylococcus aureus; design: key to RED (substrate reduced or not): RED indicates whether the substrate is reduced (Y) or not (N); RED indicates whether the substrate is reduced (Y) or not (N); key to Co (growth, absorbance at 660 nm) / Decol (substrate decolourized, decrease in absorbance) / Fluo (fluorescence multiplied by 2 relative to substrate-free control): The symbol “+” means good growth/decolourization/significant increase in fluorescence; The symbol “+/−” means difficult growth; The symbol “−” means that there is no growth/decolourization/significant increase in fluorescence; conditions: S. aureus, substrate 35 mg/l
# In short: as §1
# Cronobacter muytjensii = tested on: Cronobacter muytjensii; design: key to RED (substrate reduced or not): RED indicates whether the substrate is reduced (Y) or not (N); RED indicates whether the substrate is reduced (Y) or not (N); key to Co (growth, absorbance at 660 nm) / Decol (substrate decolourized, decrease in absorbance) / Fluo (fluorescence multiplied by 2 relative to substrate-free control): The symbol “+” means good growth/decolourization/significant increase in fluorescence; The symbol “+/−” means difficult growth; The symbol “−” means that there is no growth/decolourization/significant increase in fluorescence; conditions: E. muytjensii, substrate 35 mg/l
# In short: as §1
# Acinetobacter baumanii = tested on: Acinetobacter baumanii; design: key to RED (substrate reduced or not): RED indicates whether the substrate is reduced (Y) or not (N); RED indicates whether the substrate is reduced (Y) or not (N); key to Decol (substrate decolourized, decrease in absorbance) / Fluo (fluorescence multiplied by 2 relative to substrate-free control) / Co (growth, absorbance at 660 nm): The symbol “+” means good growth/decolourization/significant increase in fluorescence; The symbol “+/−” means difficult growth; The symbol “−” means that there is no growth/decolourization/significant increase in fluorescence; conditions: A. baumannii, substrate 35 mg/l
# In short: as §1
# Enterococcus faecalis = tested on: Enterococcus faecalis; design: key to RED (substrate reduced or not): RED indicates whether the substrate is reduced (Y) or not (N); RED indicates whether the substrate is reduced (Y) or not (N); key to Decol (substrate decolourized, decrease in absorbance) / Fluo (fluorescence multiplied by 2 relative to substrate-free control) / Co (growth, absorbance at 660 nm): The symbol “+” means good growth/decolourization/significant increase in fluorescence; The symbol “+/−” means difficult growth; The symbol “−” means that there is no growth/decolourization/significant increase in fluorescence; conditions: E. faecalis, substrate 35 mg/l
# In short: as §1
compound,measurement,setting,value
O=S(=O)([O-])c1ccc2c(N=Nc3ccccc3)c(O)c(S(=O)(=O)[O-])cc2c1.[Na+].[Na+] [Ponceau 2G],"Co (growth, absorbance at 660 nm)",[1],+
same,"Decol (substrate decolourized, decrease in absorbance)",[1],−
same,Fluo (fluorescence multiplied by 2 relative to substrate-free control),[1],−
same,RED (substrate reduced or not),[1],N
same,"Co (growth, absorbance at 660 nm)",Kocuria rosea,−
same,"Decol (substrate decolourized, decrease in absorbance)",Kocuria rosea,−
same,Fluo (fluorescence multiplied by 2 relative to substrate-free control),Kocuria rosea,−
same,"Co (growth, absorbance at 660 nm)",Geotrichum candidum,+/−
same,"Decol (substrate decolourized, decrease in absorbance)",Geotrichum candidum,−
same,Fluo (fluorescence multiplied by 2 relative to substrate-free control),Geotrichum candidum,−
same,RED (substrate reduced or not),Geotrichum candidum,N
same,"Co (growth, absorbance at 660 nm)",Candida albicans,+
same,"Decol (substrate decolourized, decrease in absorbance)",Candida albicans,−
same,Fluo (fluorescence multiplied by 2 relative to substrate-free control),Candida albicans,−
same,RED (substrate reduced or not),Candida albicans,N
same,"Co (growth, absorbance at 660 nm)",Pseudomonas aeruginosa,+
same,"Decol (substrate decolourized, decrease in absorbance)",Pseudomonas aeruginosa,−
same,Fluo (fluorescence multiplied by 2 relative to substrate-free control),Pseudomonas aeruginosa,−
same,RED (substrate reduced or not),Pseudomonas aeruginosa,N
same,"Co (growth, absorbance at 660 nm)",Escherichia coli,+
same,"Decol (substrate decolourized, decrease in absorbance)",Escherichia coli,−
same,Fluo (fluorescence multiplied by 2 relative to substrate-free control),Escherichia coli,−
same,RED (substrate reduced or not),Escherichia coli,N
same,"Co (growth, absorbance at 660 nm)",Staphylococcus aureus,+
same,"Decol (substrate decolourized, decrease in absorbance)",Staphylococcus aureus,−
same,Fluo (fluorescence multiplied by 2 relative to substrate-free control),Staphylococcus aureus,−
same,RED (substrate reduced or not),Staphylococcus aureus,N
same,"Co (growth, absorbance at 660 nm)",Cronobacter muytjensii,+
same,"Decol (substrate decolourized, decrease in absorbance)",Cronobacter muytjensii,−
same,Fluo (fluorescence multiplied by 2 relative to substrate-free control),Cronobacter muytjensii,−
same,RED (substrate reduced or not),Cronobacter muytjensii,N
same,"Co (growth, absorbance at 660 nm)",Acinetobacter baumanii,+
same,"Decol (substrate decolourized, decrease in absorbance)",Acinetobacter baumanii,−
same,Fluo (fluorescence multiplied by 2 relative to substrate-free control),Acinetobacter baumanii,−
same,RED (substrate reduced or not),Acinetobacter baumanii,N
same,"Co (growth, absorbance at 660 nm)",Enterococcus faecalis,+
same,"Decol (substrate decolourized, decrease in absorbance)",Enterococcus faecalis,+
same,Fluo (fluorescence multiplied by 2 relative to substrate-free control),Enterococcus faecalis,−
same,RED (substrate reduced or not),Enterococcus faecalis,Y

# Reference: US20150125889A1, “IN VITRO DETECTION OF MICROORGANISMS WITH AZOREDUCTASE ACTIVITY” (BIOMÉRIEUX, priority 2012, published 2015)
